From patent US11555012B2 (Nimbus Artemis, Inc., priority 2018, dated 2023)
pIC50: −log10 of the molar value.

Tests used:
[1] = target: T1, ACL (Homo sapiens (Human), UniProt P53396); experiment: ACLY-MDH Coupled Assay
Target sequence in this assay (P53396 whole entry, species assumed): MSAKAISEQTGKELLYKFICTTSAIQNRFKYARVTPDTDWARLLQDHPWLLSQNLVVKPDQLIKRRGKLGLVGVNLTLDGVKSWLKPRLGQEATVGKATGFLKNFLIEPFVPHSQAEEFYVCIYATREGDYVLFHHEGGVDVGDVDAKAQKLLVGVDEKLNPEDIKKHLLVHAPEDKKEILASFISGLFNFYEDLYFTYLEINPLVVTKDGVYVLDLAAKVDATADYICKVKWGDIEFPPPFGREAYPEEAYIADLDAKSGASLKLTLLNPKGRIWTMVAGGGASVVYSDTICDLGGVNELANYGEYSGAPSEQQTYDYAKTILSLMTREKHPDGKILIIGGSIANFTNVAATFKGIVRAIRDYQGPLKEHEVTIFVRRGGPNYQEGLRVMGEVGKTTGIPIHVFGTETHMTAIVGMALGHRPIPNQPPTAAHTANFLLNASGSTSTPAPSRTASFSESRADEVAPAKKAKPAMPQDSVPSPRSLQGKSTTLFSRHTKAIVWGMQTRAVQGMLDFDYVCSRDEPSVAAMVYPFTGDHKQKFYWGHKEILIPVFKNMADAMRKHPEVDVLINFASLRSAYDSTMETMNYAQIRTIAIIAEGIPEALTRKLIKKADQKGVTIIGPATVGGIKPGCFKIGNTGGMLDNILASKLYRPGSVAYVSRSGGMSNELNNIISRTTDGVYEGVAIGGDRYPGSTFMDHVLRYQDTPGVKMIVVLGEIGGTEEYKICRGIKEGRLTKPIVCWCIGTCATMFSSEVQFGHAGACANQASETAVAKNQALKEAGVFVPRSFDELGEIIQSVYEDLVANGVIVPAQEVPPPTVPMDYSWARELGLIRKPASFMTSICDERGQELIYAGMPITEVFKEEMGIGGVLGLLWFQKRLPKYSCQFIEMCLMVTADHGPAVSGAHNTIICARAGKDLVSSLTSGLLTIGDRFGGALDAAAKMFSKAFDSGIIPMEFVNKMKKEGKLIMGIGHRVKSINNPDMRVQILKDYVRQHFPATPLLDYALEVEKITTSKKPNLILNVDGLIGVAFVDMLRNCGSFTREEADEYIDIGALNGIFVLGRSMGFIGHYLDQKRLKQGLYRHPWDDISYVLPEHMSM
Procedure: Compounds of the present invention were evaluated in an ACLY Coupled Assay.
The assay protocol for the Coupled Assay (below) was followed:
b) Add 1 μL cpds to 96 assay plate, Test cpd conc: 100/30/10 μM top dose, 3 folds dilution, 10+0+control (control: buffer without ACL+DMSO) points, 1000 rpm for 1 min, incubation at 25° C. for 60 min

[2] = target: T1, ACL; experiment: ADP-Glo Assay
Target sequence in this assay (P53396 other isoform, or with tags, fused parts or gaps isoform P53396-2): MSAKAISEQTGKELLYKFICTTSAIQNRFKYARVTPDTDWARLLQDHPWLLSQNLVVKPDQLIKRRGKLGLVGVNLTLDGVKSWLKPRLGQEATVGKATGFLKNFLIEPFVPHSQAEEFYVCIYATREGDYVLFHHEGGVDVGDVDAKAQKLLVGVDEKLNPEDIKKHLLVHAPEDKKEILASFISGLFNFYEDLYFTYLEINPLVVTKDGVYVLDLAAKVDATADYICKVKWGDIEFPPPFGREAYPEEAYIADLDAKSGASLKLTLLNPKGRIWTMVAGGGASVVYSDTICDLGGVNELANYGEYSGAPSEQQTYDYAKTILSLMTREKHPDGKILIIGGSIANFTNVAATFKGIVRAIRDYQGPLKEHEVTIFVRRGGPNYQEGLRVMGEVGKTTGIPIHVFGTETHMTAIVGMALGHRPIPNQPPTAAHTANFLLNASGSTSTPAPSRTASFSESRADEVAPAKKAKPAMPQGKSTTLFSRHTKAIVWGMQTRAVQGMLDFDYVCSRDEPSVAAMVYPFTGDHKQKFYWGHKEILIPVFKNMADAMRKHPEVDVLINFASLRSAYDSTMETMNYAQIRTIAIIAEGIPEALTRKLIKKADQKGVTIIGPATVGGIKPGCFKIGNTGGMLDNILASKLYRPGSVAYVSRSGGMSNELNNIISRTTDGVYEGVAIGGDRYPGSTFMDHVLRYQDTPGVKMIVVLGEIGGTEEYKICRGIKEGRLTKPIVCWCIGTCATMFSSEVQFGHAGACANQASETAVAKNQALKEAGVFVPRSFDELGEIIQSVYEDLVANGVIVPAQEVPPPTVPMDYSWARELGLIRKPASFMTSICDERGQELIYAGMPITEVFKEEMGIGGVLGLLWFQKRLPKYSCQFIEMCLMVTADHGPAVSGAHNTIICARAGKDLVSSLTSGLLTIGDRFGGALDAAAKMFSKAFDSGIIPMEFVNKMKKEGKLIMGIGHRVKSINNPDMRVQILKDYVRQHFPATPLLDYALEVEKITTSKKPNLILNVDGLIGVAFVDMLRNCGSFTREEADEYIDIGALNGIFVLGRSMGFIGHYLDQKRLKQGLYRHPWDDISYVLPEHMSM

[3] = read-out: ACL-ADP-Glo (IC50), 3 nM ACL, 15 μM ATP, 3 μM CoA, 300 μM Citrate
[4] = read-out: ACL-MDH Coupled Assay (IC50), 8 nM ACL, 60 μM CoA Na2, 85 μM Citrate, 250 μM ATP, 250 μM NADH

| Structure (SMILES) | pIC50 [1] | pIC50 [2] | pIC50 [2, 3] | pIC50 [1, 4] |
| --- | --- | --- | --- | --- |
| O=S(=O)(Nc1cc(Cl)cc(-c2nccs2)c1)c1cc(Cl)cc(Cl)c1O [I-240, 3,5-dichloro-N-(3-chloro-5-(thiazol-2-yl)phenyl)-2-hydroxybenzenesulfonamide] | 4.52 to 6.30 | 4.70 to 6.30 |  |  |
| O=C(c1cc(Cl)c(O)c(S(=O)(=O)Nc2cc(-n3nccn3)ccc2F)c1)N1CCC1 [I-241, 5-(azetidine-1-carbonyl)-3-chloro-N-(2-fluoro-5-(2H-1,2,3-triazol-2-yl)phenyl)-2-hydroxybenzenesulfonamide] | 4.52 to 6.30 | 6.30 to 7.30 |  |  |
| O=C(O)c1cc(Cl)c(O)c(S(=O)(=O)Nc2cc(-c3cccs3)c(F)cc2F)c1 [I-248, 3-chloro-5-[[2,4-difluoro-5-(thiophen-2-yl)phenyl]sulfamoyl]-4-hydroxybenzoic Acid] | 4.52 to 6.30 | 4.70 to 6.30 |  |  |
| O=C(O)COc1ccc(-c2ccccc2)cc1NS(=O)(=O)c1cc(C(F)(F)F)cc(Cl)c1O [I-264, 2-([3-[3-chloro-2-hydroxy-5-(trifluoromethyl)benzenesulfonamido]-[1,1-biphenyl]-4-yl]oxy)acetic Acid] | 4.52 to 6.30 | 4.70 to 6.30 |  |  |
| O=S(=O)(Nc1cc(-c2ccccc2)c(F)cc1F)c1cc(-c2nnn[nH]2)cc(Cl)c1O [I-269, 3-chloro-N-[4,6-difluoro-[1,1-biphenyl]-3-yl]-2-hydroxy-5-(1H-1,2,3,4-tetrazol-5-yl)benzene-1-sulfonamide] | 4.52 to 6.30 | 4.70 to 6.30 |  |  |
| COc1ccc(-c2ccccc2)cc1NS(=O)(=O)c1cc(C(=O)N2CC(N)C2)cc(Cl)c1O [I-276, 5-(3-aminoazetidine-1-carbonyl)-3-chloro-2-hydroxy-N-[4-methoxy-[1,1-biphenyl]-3-yl]benzene-1-sulfonamide] | 6.30 to 7.30 |  | > 7.30 |  |
| NC1CN(C(=O)c2cc(Cl)c(O)c(S(=O)(=O)Nc3cc(-c4cc5ccccc5s4)c(F)cc3F)c2)C1 [I-282, 5-(3-aminoazetidine-1-carbonyl)-N-(5-(benzo[b]thiophen-2-yl)-2,4-difluorophenyl)-3-chloro-2-hydroxybenzenesulfonamide] |  |  | > 7.30 | > 7.30 |
| O=C(O)c1cc(F)c(-c2ccccc2)cc1NS(=O)(=O)c1cc(Cl)cc(Cl)c1O [I-289, 5-((3,5-dichloro-2-hydroxyphenyl)sulfonamido)-2-fluoro-[1,1′-biphenyl]-4-carboxylic Acid] | 4.52 to 6.30 | 4.70 to 6.30 |  |  |
| COC(=O)c1cc(Br)cc(S(=O)(=O)Nc2cc(-c3ccccc3)ccc2C(=O)O)c1 [I-295, 3-((3-bromo-5-(methoxycarbonyl)phenyl)sulfonamido)-[1,1′-biphenyl]-4-carboxylic Acid] | 4.52 to 6.30 | 4.70 to 6.30 |  |  |
| COc1c(Cl)cc(Cl)cc1S(=O)(=O)Nc1cc(-c2cc3ccccc3s2)ccc1C(=O)O [I-297, 4-(benzo[b]thiophen-2-yl)-2-((3,5-dichloro-2-methoxyphenyl)sulfonamido)benzoic Acid] | 4.52 to 6.30 | 4.70 to 6.30 |  |  |
| O=C(O)c1ccc(-c2ccccc2)cc1NS(=O)(=O)Cc1cc(Cl)cc(Cl)c1 [I-305, 3-(((3,5-dichlorophenyl)methyl)sulfonamido)-[1,1′-biphenyl]-4-carboxylic acid] | 4.52 to 6.30 | 4.70 to 6.30 |  |  |
| O=C(O)c1ccc(-c2ccccc2)cc1NS(=O)(=O)c1cc(Br)cc(C(F)(F)F)c1 [I-306, 3-((3-bromo-5-(trifluoromethyl)phenyl)sulfonamido)-[1,1′-biphenyl]-4-carboxylic acid] | 6.30 to 7.30 | 6.30 to 7.30 |  |  |
| O=C(O)c1occc1NS(=O)(=O)c1cc(Cl)cc(Cl)c1 [I-316, 3-((3,5-dichlorophenyl)sulfonamido)furan-2-carboxylic acid] | 4.52 to 6.30 | 4.70 to 6.30 |  |  |
| O=C(O)c1cc(F)c(-c2ccccc2)cc1NCc1cc(Cl)cc(Cl)c1 [I-317, 5-((3,5-dichlorobenzyl)amino)-2-fluoro-[1,1′-biphenyl]-4-carboxylic Acid] | 4.52 to 6.30 | 4.70 to 6.30 |  |  |
| O=C(O)c1sc(-c2ccc(Cl)cc2)cc1NS(=O)(=O)c1cc(Cl)cc(Cl)c1 [I-322, 5-(4-chlorophenyl)-3-((3,5-dichlorophenyl)sulfonamido)thiophene-2-carboxylic acid] | 4.52 to 6.30 | 4.70 to 6.30 |  |  |
| O=C(O)c1ccc(-c2ccccc2)cc1NS(=O)(=O)CC1Cc2ccccc2C1 [I-328] | 4.52 to 6.30 | 4.70 to 6.30 |  |  |
| O=C(O)c1ccc(-c2ccccc2)cc1NS(=O)(=O)C1CCC1 [I-329] | 4.52 to 6.30 | 4.70 to 6.30 |  |  |
| O=C(O)c1ccc(-c2ccccc2)cc1NS(=O)(=O)c1c(Cl)nc2sccn12 [I-332] | 4.52 to 6.30 | 4.70 to 6.30 |  |  |
| Cc1sc2ccccc2c1S(=O)(=O)Nc1cc(-c2ccccc2)ccc1C(=O)O [I-333] | 4.52 to 6.30 | 4.70 to 6.30 |  |  |
| O=C(O)c1ccc(-c2ccccc2)cc1NS(=O)(=O)c1c(Cl)nc2ccc(Br)cn12 [I-334] | 4.52 to 6.30 | 4.70 to 6.30 |  |  |
| Cc1c(S(=O)(=O)Nc2cc(-c3ccccc3)ccc2C(=O)O)c2ccccc2n1C [I-335] | 4.52 to 6.30 | 4.70 to 6.30 |  |  |
| O=C(O)c1ccc(-c2ccccc2)cc1NS(=O)(=O)N1CCC2(CCCCC2)CC1 [I-340] | 4.52 to 6.30 | 4.70 to 6.30 |  |  |

Next, values leading:

| pIC50 [1] | pIC50 [2] | pIC50 [2, 3] | pIC50 [1, 4] | Structure (SMILES) |
| --- | --- | --- | --- | --- |
| 4.52 to 6.30 | 4.70 to 6.30 |  |  | N#Cc1cc(Cl)cc(S(=O)(=O)Nc2cc(-c3ccccc3)ccc2C(=O)O)c1 [I-226, 3-((3-chloro-5-cyanophenyl)sulfonamido)-[1,1′-biphenyl]-4-carboxylic acid] |
| 6.30 to 7.30 |  | > 7.30 |  | O=C(c1cc(Cl)c(O)c(S(=O)(=O)N(C(=O)C2CC2)c2cc(-c3ccccc3)c(F)cc2F)c1)N1CCC1 [I-229, N-((5-(azetidine-1-carbonyl)-3-chloro-2-hydroxyphenyl)sulfonyl)-N-(4,6-difluoro-[1,1′-biphenyl]-3-yl)cyclopropanecarboxamide] |
| 4.52 to 6.30 | 4.70 to 6.30 |  |  | Cc1cc(C)cc(S(=O)(=O)Nc2cc(-c3ccccc3)ccc2C(=O)O)c1 [I-232, 3-((3,5-dimethylphenyl)sulfonamido)-[1,1′-biphenyl]-4-carboxylic acid] |
| 4.52 to 6.30 | 4.70 to 6.30 |  |  | CC(C)(Oc1ccc(-c2ccccc2)cc1NS(=O)(=O)c1cc(Cl)cc(Cl)c1O)C(=O)O [I-239, 2-((3-((3,5-dichloro-2-hydroxyphenyl)sulfonamido)-[1,1′-biphenyl]-4-yl)oxy)-2-methylpropanoic Acid] |
| 4.52 to 6.30 | 4.70 to 6.30 |  |  | O=C(O)c1cc(-c2ccccc2)sc1NS(=O)(=O)c1cc(Cl)cc(Cl)c1 [I-242, 2-((3,5-dichlorophenyl)sulfonamido)-5-phenylthiophene-3-carboxylic Acid] |
| 4.52 to 6.30 | 4.70 to 6.30 |  |  | O=C(O)c1ncc(-c2ccccc2)cc1NS(=O)(=O)c1cc(Cl)cc(Cl)c1 [I-243, 3-((3,5-dichlorophenyl)sulfonamido)-5-phenylpicolinic Acid] |
| 4.52 to 6.30 | 4.70 to 6.30 |  |  | O=C(O)c1ccc(-c2ccccc2)cc1NS(=O)(=O)c1cc(Cl)cc(Cl)c1O [I-249, 3-((3,5-dichloro-2-hydroxyphenyl)sulfonamido)-[1,1′-biphenyl]-4-carboxylic acid] |
| 4.52 to 6.30 | 4.70 to 6.30 |  |  | CC(C)(C)OC(=O)COc1ccc(-c2ccccc2)cc1NS(=O)(=O)c1cc(C(=O)N2CCC2)cc(Cl)c1O [I-266, tert-butyl 2-((3-((5-(azetidine-1-carbonyl)-3-chloro-2-hydroxyphenyl)sulfonamido)-[1,1′-biphenyl]-4-yl)oxy)acetate] |
| 4.52 to 6.30 | 4.70 to 6.30 |  |  | O=C(O)c1ccc(-c2cc3ccccc3s2)cc1NS(=O)(=O)c1cc(Cl)cc(Cl)c1 [I-293, 4-(benzo[b]thiophen-2-yl)-2-((3,5-dichlorophenyl)sulfonamido)benzoic acid] |
| 4.52 to 6.30 | 4.70 to 6.30 |  |  | O=C(O)c1ccc(-c2cc3ccccc3s2)cc1NS(=O)(=O)c1cc(Cl)cc(C(F)(F)F)c1 [I-294, 4-(benzo[b]thiophen-2-yl)-2-((3-chloro-5-(trifluoromethyl)phenyl)sulfonamido)benzoic Acid] |
| 4.52 to 6.30 | 4.70 to 6.30 |  |  | O=C(O)c1ccc(-c2ccccc2)cc1NS(=O)(=O)Cc1ccc(C(F)(F)F)cc1 [I-299, 3-(((4-(trifluoromethyl)phenyl)methyl)sulfonamido)-[1,1′-biphenyl]-4-carboxylic acid] |
| 4.52 to 6.30 | 4.70 to 6.30 |  |  | O=C(O)c1ccc(-c2ccccc2)cc1NS(=O)(=O)c1cc(Cl)c(Cl)s1 [I-311, 3-((4,5-dichlorothiophene)-2-sulfonamido)-[1,1′-biphenyl]-4-carboxylic acid] |
|  |  | 6.30 to 7.30 | 6.30 to 7.30 | O=c1[nH]cc(Cl)cc1S(=O)(=O)Nc1cc(-c2ccccc2)c(F)cc1F [I-326, 5-chloro-N-(4,6-difluoro-[1,1′-biphenyl]-3-yl)-2-oxo-1,2-dihydropyridine-3-sulfonamide] |
| 4.52 to 6.30 | 4.70 to 6.30 |  |  | CC(C)(C)C1CCN(S(=O)(=O)Nc2cc(-c3ccccc3)ccc2C(=O)O)CC1 [I-327] |
| 4.52 to 6.30 | 4.70 to 6.30 |  |  | O=C(O)c1ccc(-c2ccccc2)cc1NS(=O)(=O)c1ccnn1CCc1ccccc1 [I-330] |
| 4.52 to 6.30 | 4.70 to 6.30 |  |  | O=C(O)c1ccc(-c2ccccc2)cc1NS(=O)(=O)c1cc(Cl)sc1Cl [I-331] |
| 4.52 to 6.30 | 4.70 to 6.30 |  |  | O=C(O)c1ccc(-c2ccccc2)cc1NS(=O)(=O)c1ccccc1-c1ccno1 [I-336] |
| 4.52 to 6.30 | 4.70 to 6.30 |  |  | CC(=O)N1CCc2cc(Br)c(S(=O)(=O)Nc3cc(-c4ccccc4)ccc3C(=O)O)cc21 [I-338] |
| 4.52 to 6.30 | 4.70 to 6.30 |  |  | O=C(O)c1ccc(-c2ccccc2)cc1NS(=O)(=O)c1cccc2nonc12 [I-339] |
| 4.52 to 6.30 | 4.70 to 6.30 |  |  | CN(C(=O)c1cc(Cl)cc(Cl)c1)c1cc(-c2ccccc2)ccc1C(=O)O [I-347, 3-(3,5-dichloro-N-methylbenzamido)-[1,1′-biphenyl]-4-carboxylic Acid] |
